As usually defined, the IC50 is the concentration needed to halve the response being measured.

Assay [1] relates to Dunkin Hartley guinea pigs. Put plainly: Monoiodoacetate (MIA) In Vivo Model, incapacitance testing. More on the design: species or system guinea pig. As to conditions: for Mean % Reduction of Pain Compared to Vehicle / Mean Difference in Hind Paw Weight Bearing (Saline knee-MIA knee): four hours post-dose; for Mean Difference in Hind Paw Weight Bearing (Saline knee-MIA knee): 9 days after MIA, Mean ± SEM, n=6; for pain versus vehicle (statistical comparison): Example 1 both doses (10 and 50 mg/kg), diclofenac 30 mg/kg, p<0.05 by Dunnett's test. The method, then:
Male Dunkin Hartley guinea pigs weighing approximately 200-250 grams at the time of MIA injection are used to measure pain in the MIA model. The guinea pigs are group housed in a child's wading pool and maintained in a constant temperature and on a 12 hour light/12 hour dark cycle. On the day before study, the guinea pigs are moved to standard caging with 2 animals per cage. Animals have free access to food and water at all times except during data collection. All experiments are carried out according to protocols approved by the Eli Lilly Institutional Animal Care and Use Committees.
In the standard MIA model the right knees of each guinea pig are injected with MIA (0.3 mg) in saline ([…]) and the left knees with saline (50 μl). Pain is measured at 9 days after MIA injection using incapacitance testing. Incapacitance testing measures the difference in hind paw weight bearing between the MIA and saline injected knees, and each value represents the average of 3 separate measurements each measured over 1 second.
For this study, guinea pigs, are dosed with either vehicle (10% Cremophor® EL (CAS 61791-12-6) in saline) or Example 1 (10 or 50 mg/kg). A fourth group of guinea pigs are also dosed with the nonsteroidal anti-inflammatory drug diclofenac (vehicle saline, 30 mg/kg), which acts as a positive control for the study, as it has previously shown efficacy in the model. All dosing is subcutaneous at a dose volume of 5 ml/kg and group size is n=6. Dose group is randomly assigned to each animal and dosing is staggered by 10 minutes for each guinea pig. Four hours post-dose, pain is measured using incapacitance testing. Results are reported in Table 13 as the mean difference in weight bearing between saline and MIA injected knees and statistical comparisons are made between vehicle treated and compound treated animals to assess the effect of the compound of Example 1 on knee pain in the model.
Data is evaluated by one way analysis of variance; p<0.05 by Dunnett's test for comparison to vehicle and a Bonferroni adjustment is used for comparison between groups.

The subject of a further assay is PGE2 formation. The assay is described as follows: Cell Based Assay for Measuring Eicosanoid Selectivity (A549, rhIL-1β induced PGE2). As to conditions: Homo sapiens; A549 cells, rhIL-1β 0.1-0.2 ng/mL, approx. 18 hours; mean±standard deviation; n=4; read-out: IC50 inhibition of PGE2 formation. The method, then:
(§1) Human epithelial lung carcinoma cell line A549 is obtained from ATCC (CCL-185) and is maintained in Kaighn's F12 (“F12K”)+10% fetal bovine serum, (FBS) (plating medium), and 5% CO2. The cells are passaged at 1:3 twice a week.
(§2) For this assay, cells are released from flasks by washing once with phosphate buffered saline (PBS), then once with Trypsin/EDTA. After 3-5 minutes at 37° C., the cells are suspended in 10 mL of plating medium, and centrifuged at 2,000 rpm at 25° C. for 5 minutes. The supernatant is aspirated, and the cell pellet is resuspended in 10 mL F12K. Cell number is determined by counting an aliquot of cells, which has been diluted in PBS and Trypan blue on a hemocytometer. Cells are plated at 40,000/well in 96 well Falcon plates 24 hours prior to treatment. […] The plates are incubated at room temperature for 30-45 minutes, and then read on a plate reader at A490 to determine viability. […]
(§3) The conditioned medium is assayed for levels of PGE2 and PGI2 by specific enzyme immune-assays (ETAs) according to the manufacturer's protocols (Cayman) Briefly, conditioned medium (1 μL) is added to each well of a 96 well plate coated with a capture antibody and containing ETA buffer (49 μL) supplied by the manufacturer. […] After approximately 45 minutes at room temperature on an orbital shaker at 100 rpm, the plates are read at A412 on a plate reader. […]

The target in a further assay is T1, Human mPGES-1 (Homo sapiens, UniProt O14684).
T1 construct: host or cells: 293E cells (transient expression from pcDNA3.1); microsomes
T1 sequence (O14684 1-152): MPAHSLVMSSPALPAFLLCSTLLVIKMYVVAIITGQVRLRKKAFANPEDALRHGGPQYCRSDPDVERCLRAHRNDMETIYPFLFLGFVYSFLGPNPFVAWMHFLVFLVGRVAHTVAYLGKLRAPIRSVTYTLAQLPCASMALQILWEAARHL
The assay is described as follows: Human mPGES-1 Enzyme Inhibition Assay. It is filed as biochemical. The settings on record: microsomes from 293E cells, 1.69 μM PGH2; mean±standard deviation; n=10/22.

The test system of assay [2] is synthesis of other prostanoids. The assay is described as follows: Cell Based Assay for Measuring Eicosanoid Selectivity (A549, other prostanoids, PGI2). More on the design: species or system human. The settings on record: A549 cells, rhIL-1β; PGI2 by enzyme immunoassay. The method, then:
as §1, §2, §3

Assay [3] relates to PGF2α and TXB2 production. Put plainly: Human Whole Blood Assay (LPS, PGF2α and TXB2). The settings on record: LPS 100 μg/mL, 20-24 hours. It is filed as cell-based. The method, then: Blood is collected from normal volunteer donors into sodium heparin vacutainer tubes. Donors have not taken NSAIDs, aspirin, Celebrex, or glucocorticoids within two weeks of the donation. All tubes/donor are pooled into 250 mL Corning conical centrifuge tubes and 436.5 μL/well is distributed into deep well polypropylene plates. Compounds are diluted in DMSO to 100× final and 4.5 μL/well in duplicate or triplicate is added to give 7 point curves. The blood is pretreated at 37° C., 5% CO2, in a humidified atmosphere, loosely covered with a silicone cap mat, for 30 minutes after which 9 μL/well of a solution of 5 mg/mL of lipopolysaccharide (LPS) (Sigma 0111:B4) in 1 mg/mL bovine serum albumin (BSA)/PBS is added to give a final LPS concentration of 100 μg/mL. The plates are incubated for 20-24 hours, loosely covered, at 37° C., 5% CO2, in a humidified atmosphere, on an orbital shaker at approximately 100 rpm. The plates are tightly sealed with silicone cap mats and are chilled on ice for approximately 1 hour. Then the plates are centrifuged at 1800×g, 10 minutes, 4° C., in an Eppendorf 5810R centrifuge. […] One hundred microliters is quantitatively transferred to Costar cluster tubes blocks and 400 μL/well of the methanol stop reagent and internal standards, d-4PGE2, d-4PGF2α, and d-4TX2β are added. […] The products were analyzed by LC/MS/MS.

Structures are written as SMILES.

Protocol for Human mPGES-1: Human mPGES-1 (Invitrogen™ (Cat #97002RG, clone ID 6374722)) is subcloned into pcDNA3.1 and transiently expressed in 293E cells. […] Briefly, pellets are brought up in homogenization buffer (15 mM Tris-HCl, pH 8.0; 0.25 M sucrose; 0.1 mM EDTA; 1 mM glutathione) and sonicated 5×30 seconds on ice. Homogenate is centrifuged at 5000×g for 10 minutes at 4° C. The supernatant fraction is decanted; loaded into Beckman Quick-Seal® tubes; and centrifuged at 150,000×g for 90 minutes at 4° C. The supernatant fraction is discarded by decantation; and the pellets are resuspended in assay buffer (10 mM sodium phosphate (pH 7.0), 10% glycerol, and 2.5 mM glutathione. Complete Protease Inhibitor Cocktail (Roche)). Protein concentration is determined using the Pierce Coomassie Plus™ reagent.
For the enzyme assay, the microsomes are diluted into assay buffer and 7 μL/well is added to 384 well plates. Compound dilution plates (Nunc Cat #249944) are generated on a Multimek™, and 1 μL/well is added to the assay plates. Prostaglandin H2 (PGH2) is diluted into assay buffer immediately before use and 7 μL/well is added. Final concentrations are 4.4 μg/mL microsomes and 1.69 μM PGH2. After a 2.5 minute incubation at room temperature, 2.5 μL/well of 1 mg/mL of snCl2 in 0.5 N HCl is added to stop the reaction. […]

Turning to `O=C(O)Cc1ccccc1Nc1c(Cl)cccc1Cl` [Diclofenac, diclofenac, reference compound], in assay [1] (30 mg/kg subcutaneous), the “Mean % Reduction of Pain Compared to Vehicle” value (from here on “Mean % Reduction”) worked out at 22% and the “Mean Difference in Hind Paw Weight Bearing (Saline knee-MIA knee)” value (“Mean Difference” for short) came out at 34.65 ± 1.14 g. Also, the “pain versus vehicle (statistical comparison)” value in assay [1] is “significantly reduce pain”.

Turning to `Cc1nc(NC(=O)c2cc(CNC(=O)C(C)C)cnc2C(F)F)[nH]c1-c1ccc(C(F)(F)F)cc1` [Example 1, 2-(Difluoromethyl)-5-{[(2-methylpropanoyl)amino]methyl}-N-{4-methyl-5-[4-(trifluoromethyl)phenyl]-1H-imidazol-2-yl}pyridine-3-carboxamide], in assay [1] (10 mg/kg subcutaneous), the “Mean % Reduction” value is 15% and the “Mean Difference” value worked out at 37.53 ± 0.87 g. For the same compound, in assay [1] (50 mg/kg subcutaneous), the “Mean % Reduction” value stood at 36% and the “Mean Difference” value is listed as 28.44 ± 0.66 g. The “50 mg/kg group compared with the 10 mg/kg group and the diclofenac group” value in assay [1] (50 mg/kg, Bonferroni adjustment for comparison between groups) is listed as “significantly different”. Besides, in assay [1], the “pain versus vehicle (statistical comparison)” value was “significantly reduce pain”. For the same compound, in the assay on PGE2 formation, the IC50 stood at 12.1 ± 6.1 nM. Further, the IC50 at Human mPGES-1 turned out to be 0.944 ± 0.59 nM. Further, in assay [2], the “effect on synthesis of other prostanoids” value is listed as “without affecting the synthesis of other prostanoids”. Besides, in assay [3], the “effect on PGF2α production” value is recorded as “without inhibiting” and the “effect on TXB2 production” value was “without inhibiting”.

The values above are taken from patent US8648200B2, “Imidazole derivatives useful for the treatment of arthritis” (Eli Lilly and Company, priority 2011, dated 2014).
